The source of these data is ChEMBL document CHEMBL1201862, “PubChem BioAssay data set” (2004).

Test systems include A549; CCRF-CEM; DU-145; EKVX; HCT-116; HCT-15; HT-29; IGROV-1; K562; MDA-MB-231; Malme-3M; NCI/ADR-RES; PC-3; SF-295; SK-MEL-2; SNB-19; U-251; HL-60; RPMI-8226; SNB-75.
Holding throughout (assay): NCI tumour cell line growth inhibition, 48 h

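Cultured in 96-well plates, cells were exposed to test compound for 48 hours across five concentrations. GI50 marks 50% less growth.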 Calls of active or inactive are those of the source. Cut-off read from the data, not from the text of the source: active = GI50 up to about 1.1 µM and inactive = higher. Some results are limits rather than exact numbers.

As to `CC(C)(CO)NC(=O)Nc1c(C(F)(F)F)cc(-c2ccccc2)[nH]c1=O`, the GI50 is > 100 µM (inactive) with A549; > 100 µM (inactive) in the assay on CCRF-CEM; > 100 µM (inactive) in the assay with DU-145; > 100 µM (inactive) in the assay with EKVX; > 100 µM (inactive) with HCT-116; more than 100 µM with HCT-15. For the same compound, the GI50 in the assay on HT-29, with IGROV-1, with K562, in the assay with MDA-MB-231, in the assay on Malme-3M and in the assay on NCI/ADR-RES was > 100 µM (inactive) each time. Also, the GI50 with PC-3, in the assay on SF-295, in the assay on SK-MEL-2, in the assay with SNB-19 and in the assay on U-251 was > 100 µM (inactive) in each case.
Consider `N=C(N)/N=C(/C=C/c1ccccc1)CC1OC(=O)c2ccccc21` (stereo not drawn), for which the GI50 in the assay with A549 was > 100 µM (inactive); in the assay on CCRF-CEM it was 86.9 µM (inactive); in the assay on EKVX it was > 100 µM (inactive); with HCT-116 it was > 100 µM (inactive); with HCT-15, more than 100 µM; in the assay on HL-60, > 100 µM (inactive). For the same compound, the GI50 is > 100 µM (inactive) in the assay with HT-29; > 100 µM (inactive) in the assay with IGROV-1; > 100 µM (inactive) in the assay with K562; > 100 µM (inactive) in the assay with Malme-3M; > 100 µM (inactive) with RPMI-8226; > 10 µM (inactive) in the assay on SF-295. Also, the GI50 in the assay with SK-MEL-2, with SNB-19, in the assay on SNB-75 and in the assay on U-251 was > 100 µM (inactive) in each case.
As to `Cc1[nH]n(-c2nc(O)c(C)c(=O)[nH]2)c(=O)c1CCO`, the GI50 was > 100 µM (inactive) with A549; > 100 µM (inactive) in the assay with CCRF-CEM; > 100 µM (inactive) in the assay with DU-145; > 100 µM (inactive) in the assay with EKVX; > 100 µM (inactive) in the assay with HCT-116; more than 100 µM with HCT-15. For the same compound, the GI50 in the assay on HL-60, in the assay with HT-29, in the assay on IGROV-1, in the assay with K562, in the assay with MDA-MB-231 and in the assay on Malme-3M was > 100 µM (inactive) in each case. Besides, the GI50 is > 100 µM (inactive) with PC-3; > 100 µM (inactive) in the assay on RPMI-8226; > 100 µM (inactive) with SF-295; > 100 µM (inactive) with SK-MEL-2; > 100 µM (inactive) with SNB-19; 45.6 µM (inactive) in the assay on SNB-75. Also, the GI50 in the assay with U-251 is > 100 µM (inactive).
Turning to `Cc1cc(=O)oc2cc3c(cc12)Oc1ccccc1O3`, the GI50 in the assay on A549 was > 100 µM (inactive); with CCRF-CEM, > 10 µM (inactive); in the assay on EKVX it was > 10 µM (inactive); with HCT-116 it was 44.9 µM (inactive); in the assay on HCT-15, more than 100 µM; in the assay with HL-60 it was > 10 µM (inactive). Besides, the GI50 is > 100 µM (inactive) with HT-29; > 100 µM (inactive) in the assay with IGROV-1; > 10 µM (inactive) in the assay with K562; > 100 µM (inactive) in the assay on Malme-3M; > 100 µM (inactive) in the assay with RPMI-8226; 43.5 µM (inactive) with SF-295. Moreover, the GI50 is > 100 µM (inactive) with SK-MEL-2, > 100 µM (inactive) in the assay on SNB-19, 21.1 µM (inactive) with SNB-75 and 45.1 µM (inactive) in the assay on U-251.
Take `COC(=O)C1Cc2c([nH]c3ccccc23)-c2[nH]c3ccccc3c2CC(NC(C)=O)C(=O)NCC(=O)N1` (stereo not drawn): the GI50 in the assay with A549 is > 100 µM (inactive); in the assay with CCRF-CEM it was > 100 µM (inactive); with DU-145, > 100 µM (inactive); in the assay on EKVX, > 100 µM (inactive); in the assay on HCT-116, > 100 µM (inactive); in the assay with HCT-15, more than 100 µM. Moreover, the GI50 with HT-29 is > 100 µM (inactive); in the assay on IGROV-1, 0.914 µM (active); in the assay with K562 it was > 100 µM (inactive); with MDA-MB-231 it was > 100 µM (inactive); in the assay on NCI/ADR-RES, > 100 µM (inactive); in the assay with PC-3, > 100 µM (inactive). In addition, the GI50 in the assay on RPMI-8226, in the assay with SF-295, in the assay on SK-MEL-2, in the assay on SNB-19, with SNB-75 and with U-251 was > 100 µM (inactive) in each case.
As for `O=S(=O)(c1cc(Cl)ccc1Cl)N1CCN(c2cccc(Cl)c2)CC1`, the GI50 in the assay on A549 was > 100 µM (inactive); with CCRF-CEM, > 100 µM (inactive); in the assay on DU-145 it was > 100 µM (inactive); in the assay on EKVX, > 100 µM (inactive); in the assay with HCT-116, > 100 µM (inactive); with HCT-15, more than 100 µM. Moreover, the GI50 was > 100 µM (inactive) in the assay with HL-60; 58.7 µM (inactive) in the assay with HT-29; > 100 µM (inactive) in the assay with IGROV-1; 67 µM (inactive) in the assay with K562; > 100 µM (inactive) in the assay on MDA-MB-231; > 100 µM (inactive) with Malme-3M. Besides, the GI50 with PC-3, in the assay on RPMI-8226, in the assay with SF-295, in the assay with SNB-19, with SNB-75 and in the assay on U-251 was > 100 µM (inactive) throughout.
On to `Cc1n[nH]c(=O)n1/N=C/c1ccc([N+](=O)[O-])o1`, for which the GI50 in the assay on A549 was 16.7 µM (inactive); with CCRF-CEM, 13.5 µM (inactive); with DU-145, 10.4 µM (inactive); in the assay with EKVX it was 17.5 µM (inactive); in the assay on HCT-116 it was 8.39 µM (inactive); in the assay with HCT-15, 7.01 µM. Besides, the GI50 in the assay on HT-29 was 12.9 µM (inactive); in the assay with K562 it was 8.02 µM (inactive); in the assay on MDA-MB-231, 18.2 µM (inactive); in the assay with Malme-3M, 4.65 µM (inactive); in the assay on NCI/ADR-RES, 17.4 µM (inactive); with PC-3 it was 29 µM (inactive). Besides, the GI50 is 15.7 µM (inactive) in the assay on RPMI-8226; 25.8 µM (inactive) with SF-295; 14.2 µM (inactive) in the assay with SK-MEL-2; 31 µM (inactive) in the assay with SNB-19; 32.4 µM (inactive) in the assay on SNB-75; 21.7 µM (inactive) in the assay with U-251.
Take `O=C1NC(=S)NC1C(Cc1ccccc1)c1ccco1` (stereo not drawn): the GI50 is > 100 µM (inactive) in the assay with A549; 68.2 µM (inactive) in the assay with CCRF-CEM; > 100 µM (inactive) in the assay with DU-145; > 100 µM (inactive) in the assay on EKVX; > 100 µM (inactive) in the assay with HCT-116; more than 100 µM with HCT-15. In addition, the GI50 was 39.6 µM (inactive) in the assay with HL-60; > 100 µM (inactive) in the assay on HT-29; > 100 µM (inactive) in the assay with IGROV-1; 83.4 µM (inactive) with K562; > 100 µM (inactive) with MDA-MB-231; > 100 µM (inactive) in the assay with Malme-3M. Further, the GI50 in the assay with NCI/ADR-RES is > 100 µM (inactive); in the assay with RPMI-8226 it was 84.9 µM (inactive); in the assay on SF-295, > 100 µM (inactive); in the assay on SNB-19, > 100 µM (inactive); with SNB-75, > 100 µM (inactive); with U-251 it was > 100 µM (inactive).
As to `COC(=O)[C@]12CSC[C@H]1C[C@H](c1cccc3ccccc13)N2`, the GI50 in the assay with A549 is 93.3 µM (inactive); in the assay on CCRF-CEM, 30.2 µM (inactive); in the assay with DU-145, 27.8 µM (inactive); in the assay with EKVX, > 100 µM (inactive); in the assay with HCT-116 it was 51.6 µM (inactive); with HCT-15 it was more than 100 µM. Moreover, the GI50 is 43.1 µM (inactive) with IGROV-1; 35.1 µM (inactive) with K562; > 100 µM (inactive) in the assay on MDA-MB-231; > 100 µM (inactive) in the assay on NCI/ADR-RES; > 100 µM (inactive) in the assay with PC-3; 61.8 µM (inactive) in the assay on RPMI-8226. In addition, the GI50 in the assay with SF-295 was > 100 µM (inactive); in the assay with SK-MEL-2, > 100 µM (inactive); in the assay on SNB-19, > 100 µM (inactive); in the assay on SNB-75, > 100 µM (inactive); with U-251 it was 69.8 µM (inactive).
Consider `O=C(CC1C(=O)Nc2ccccc2[S+]1[O-])Nc1cccc(Cl)c1` (stereo not drawn), for which the GI50 with A549 was > 100 µM (inactive); in the assay with CCRF-CEM it was > 35.4 µM (inactive); with DU-145, 32.5 µM (inactive); in the assay with EKVX, > 47.4 µM (inactive); in the assay with HCT-116 it was 31.6 µM (inactive); in the assay on HCT-15, 27.1 µM. Besides, the GI50 in the assay with HL-60 was > 33.5 µM (inactive); in the assay on HT-29, > 35.6 µM (inactive); in the assay with IGROV-1, > 37.5 µM (inactive); with K562, 6.61 µM (inactive); with MDA-MB-231, 7.31 µM (inactive); in the assay with Malme-3M, > 55.6 µM (inactive). Besides, the GI50 is 18.5 µM (inactive) in the assay with NCI/ADR-RES; 7.98 µM (inactive) in the assay with RPMI-8226; 41.9 µM (inactive) in the assay with SF-295; 55.5 µM (inactive) in the assay on SK-MEL-2; 30.5 µM (inactive) with SNB-19; 16.4 µM (inactive) in the assay on SNB-75. Also, in the assay on U-251, the GI50 is 33.7 µM (inactive).
As to `Cc1oc2nc(N(C)C)n3nnnc3c2c1C`, the GI50 with A549 was > 100 µM (inactive); in the assay on CCRF-CEM, > 100 µM (inactive); with DU-145, > 100 µM (inactive); in the assay on EKVX it was > 100 µM (inactive); with HCT-116, > 100 µM (inactive); in the assay on HCT-15, more than 100 µM. Also, the GI50 in the assay on HL-60 was 18.6 µM (inactive); with HT-29 it was > 100 µM (inactive); with IGROV-1, > 100 µM (inactive); in the assay on K562, > 100 µM (inactive); in the assay on MDA-MB-231, > 100 µM (inactive); in the assay on NCI/ADR-RES it was > 100 µM (inactive). Also, the GI50 in the assay on RPMI-8226 is > 100 µM (inactive); in the assay on SF-295, > 100 µM (inactive); with SNB-19, > 100 µM (inactive); with SNB-75, 67.5 µM (inactive); in the assay with U-251, > 100 µM (inactive).
